In patent US8232408B2, “Crystalline 1-(3-fluorophenyl)-5-methyl-2-(1H)pyridone, the preparation methods, compositions and applications thereof” (Sunshine Lake Pharma Co., Ltd., priority 2008, dated 2012) one finds effect on anti-fibrosis and solubility data, which are given here for two compounds.

For one data set, the system named is renal interstitial cell. The conditions noted are these: cited from earlier work.
A short description of data set [1]: Solubility per "Testing Method For Determining The Solubility", Chinese Pharmacopoeia 2005. The settings on record: water, 25±1° C. Format: physicochemical. The source says:
(Testing method is according to the “Testing Method For Determining The Solubility” in The Chinese Pharmacopoeia 2005, the example section of the second part, the last line on the first page to the first line on the second.)
2. […] It can ensure that the drug can be steadily released after taking orally. The drug can mix with one's internal environment easily after release, which renders the steady absorption of the drug, and the achievement of a relatively stable bioavailability.

A short description of data set [2]: Solubility measurement: excess sample shaken in purified water for 48 hours, filtered supernatant measured. Format: physicochemical. The conditions noted are these: thermodynamic from solid, shaken 48 hours. On the procedure:
Solubility measurement: excess crystalline FFD solid dispersion was put into a cone-shaped bottle with a stopper. After 100 ml purified water was added, the solution was shaken at a constant of 25° C. and 37° C. separately for 48 hours. The filtered supernatants were diluted and their concentrations were measured thrice for each sample.

Each structure is given as a SMILES string. In brackets after ≈: the same amount, converted by molar mass. Read-outs that look alike come from different tables or passages of the source.

`Cc1ccc(=O)n(-c2cccc(F)c2)c1` [FFD, 1-(3-fluorophenyl)-5-methyl-2-(1H)-pyridone]: in the data set on renal interstitial cell, the effect on anti-fibrosis result is on record as “good effect on anti-fibrosis”. For the same compound, the solubility in data set [1] (25 °C, thermodynamic from solid, read-out: solubility) is 1410 to 1490 µg/mL (≈ 6.94 to 7.33 mM).

On to `Cc1ccc(=O)n(-c2cccc(F)c2)c1` [crystalline FFD, 1-(3-fluorophenyl)-5-methyl-2-(1H)-pyridone], for which the solubility in data set [1] was 2.44˜2.55 mg/ml. Also, the solubility at 48 h in data set [2] (25° C.) was in the range of 2440 to 2550 µg/mL (≈ 12 to 12.5 mM); in data set [2] (37° C.), 3140 to 3160 µg/mL.

As a reminder, the solubility is the dissolved amount per volume that the medium holds.
